Patent US12578343B2, “Selective ACKR3 modulators and uses thereof” (Luxembourg Institute of Health (LIH), priority 2019, dated 2026)
pIC50: −log10 of the molar value.

Tests used:
[1] = tested on: rat locus coeruleus neurons; assay type: cell-based
Procedure: 1.9. Ex Vivo Rat Neuron Depolarization
Adult male Wistar rats (6 to 8-week old) were housed at room temperature in groups of three or four with a 12:12 hour light-dark cycle. All animals had access to ad libitum food and water. All procedures were carried out in accordance with guidelines of the European Communities Council Directive of 24 Nov. 1986 (86609EE) and were accepted by the Ethics Committee for Animal Use of the University of Liège (protocol 2061). All efforts were made to minimize animal suffering.
1.9.2. Brain Explant Preparation and Recording Procedures
Rats were anaesthetized with chloral hydrate (400 mg/kg, i.p.) and placed under a cap with oxygenated air (95% O2, 5% CO2) two minutes prior to decapitation. After decapitation, the brain was rapidly removed and placed in ice cold (˜2° C.) oxygenated artificial cerebrospinal fluid (aCSF) of the following composition: NaCl 130 mM, KCl 3.5 mM, NaH2PO4 1.25 mM, NaHCO3 24 mM, Glucose 10 mM, CaCl2 2 mM, MgSO4 1.25 mM. A block of tissue containing the pons was placed in a vibrating blade microtome (Vibratome 1000 Plus, Sectioning System) and a slice containing the locus coeruleus (LC) immediately rostral to the fourth ventricle and the VIIth nerve, used as anatomical landmarks, was cut coronally (400 μm thick). The slice was placed on a nylon mesh in a recording chamber (volume: 0.5 ml) where it was superfused by oxygenated aCSF (34.0±0.5° C.) at a rate of 2 to 3 ml/min. The LC was recognized as a translucent region during transillumination, lateral to the fourth ventricle. All experiments were performed in oxygenated aCSF with synaptic blockers consisting of 10 μM CNQX, 10 μM SR95531, 1 μM MK801, and 1 μM CGP55845, which block AMPA/Kainate, GABAA, NMDA, and GABAB receptors, respectively. This ensured that the spontaneous firing of the neurons was only due to its endogenous pace making.
Extracellular single cell recordings of LC neurons were performed with glass microelectrodes filled with aCSF (resistance 10-20 MΩ). Signals were passed through an impedance adapter and were amplified 1000× using a home-made amplifier. […] Data were collected and analysed with the Spike 2 software (Cambridge Electronic Design). […] The duration of the extracellularly recorded action potentials was 2-3 ms. Drugs and peptides were applied for at least 10 minutes.
The mean firing rate over 1 minute was calculated during each condition. Next, the inhibition of firing by the peptides and drugs used (LIH383 and dynorphin) was quantified as the % of total inhibition. For this purpose, present inventors considered the mean firing rate during the last minute of each condition (control, LIH383 alone, LIH383 plus a given concentration of dynorphin).

[2] = biological target: ACKR3; assay: Binding competition | ACKR3 | IC50 (nM)
Text: Table printed on a drawing sheet, FIG. 1 (continued) H
Head of the field: Binding competition | ACKR3 | IC50 (nM)
The patent's description of the figure: FIG. 1 Opioid peptide library screening on ACKR3, hit confirmation and comparison with classical opioid receptors. (A) The ability of 58 compounds, including natural opioid peptides from the four opioid families, variants thereof and small molecule opioid receptor modulators, to induce β-arrestin-2 recruitment to ACKR3, CXCR4 and CXCR3 in U87 cells at a concentration of 5 μM. Positive control chemokines were used at a concentration of 300 nM. Results are expressed as fold change over vehicle-treated cells and presented as mean±S.D of two replicates (B-F) Comparison of potency and efficacy of ACKR3-activating peptides in inducing β-arrestin-1 recruitment to the opioid receptors MOR (B), DOR (C), KOR (D), NOP (E) and ACKR3 (F) in U87 cells. Results are expressed as percentage of indicated agonist response. […] Results from B—H are presented as mean±S.E.M (n ? 3).
Where the first naming reader finds the target: head: Binding competition | ACKR3 | IC50 (nM)

[3] = biological target: ACKR3 (Homo sapiens, UniProt P25106); assay: Uptake of fluorescently labelled opioid peptides by ACKR3-expressing U87 cells, imaging flow cytometry; assay type: cell-based; set-up: expressed in transfected cells; for the receptor comparison in the uptake assay, transient pcDNA3.1); details: saturating concentration of LIH383 (3 μM)
ACKR3 (Homo sapiens, UniProt P25106), sequence (P25106 whole entry): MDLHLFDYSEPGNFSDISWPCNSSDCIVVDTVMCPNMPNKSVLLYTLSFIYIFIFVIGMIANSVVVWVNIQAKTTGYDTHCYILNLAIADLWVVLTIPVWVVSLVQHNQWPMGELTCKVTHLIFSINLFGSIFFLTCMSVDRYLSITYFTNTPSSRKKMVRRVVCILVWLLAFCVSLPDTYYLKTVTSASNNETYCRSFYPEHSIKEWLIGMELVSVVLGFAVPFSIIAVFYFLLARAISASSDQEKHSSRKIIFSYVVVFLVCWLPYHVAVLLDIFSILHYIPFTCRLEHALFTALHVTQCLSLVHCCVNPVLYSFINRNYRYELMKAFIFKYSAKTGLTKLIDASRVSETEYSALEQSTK
Procedure: Visualization of Fluorescently Labelled Opioid Peptides Uptake by Imagestream
48 hours post transfection, cells were harvested and treated as described above. Dead cells were excluded using Zombie NIR or Zombie Green viability dye (BioLegend) for FAM-labelled peptides and Cy5-labelled peptides, respectively. Images of 1×10^4 in-focus, living single cells were acquired with an ImageStream MKII imaging flow cytometer (Amnis) using 40× magnification (60× magnification for smNPCs). Samples were analysed using Ideas6.2 software. The number of spots per cell was determined using a mask-based software wizard.

Compound: CSCC[C@H](NC(=O)[C@H](Cc1ccccc1)NC(=O)CNC(=O)CNC(=O)[C@@H](N)Cc1ccccc1)C(=O)N[C@@H](CCCNC(=N)N)C(=O)N[C@@H](CCCNC(=N)N)C(=O)N[C@@H](CCCCN)C(N)=O [LIH383]
- effect of pretreatment on dynorphin A-induced depolarization inhibition ([1]; LIH383 1 or 3 μM): significant increase of depolarization inhibition and an apparent improved potency of dynorphin A towards its classical receptors
- inhibition of neuronal firing ([1]; concentration as high as 3 μM): did not lead to significant inhibition of neuronal firing
- pIC50 [2]: 8.40
- dynorphin A-FAM uptake by U87-ACKR3 cells compared to U87-ACKR3 cells pre-incubated with LIH383 [3]: notably higher number of distinguishable vesicle-like structures and mean fluorescent intensity
